The text below walks through data of patent US11154060B2, “Microbiocidal oxadiazole derivatives” (SYNGENTA PARTICIPATIONS AG, priority 2016, dated 2021).

Data set [1] deals with Puccinia recondita f. sp. tritici. As to the kind of experiment: Puccinia recondita f. sp. tritici / wheat / leaf disc preventative (brown rust). It is filed as in vivo. Conditions: foliar, wheat leaf segments cv. Kanzler, inoculated 1 day after application, assessed 7-9 days after application, read-out: control of Puccinia recondita f. sp. tritici compared to untreated control. The protocol: Leaf disks or leaf segments of various plant species are cut from plants grown in a greenhouse. The cut leaf disks or segments are placed in multiwell plates (24-well format) onto water agar. The leaf disks are sprayed with a test solution before (preventative) or after (curative) inoculation. Compounds to be tested are prepared as DMSO solutions (max. 10 mg/ml) which are diluted to the appropriate concentration with 0.025% Tween20 just before spraying. The inoculated leaf disks or segments are incubated under defined conditions (temperature, relative humidity, light, etc.) according to the respective test system. A single evaluation of disease level is carried out 3 to 14 days after inoculation, depending on the pathosystem. Percent disease control relative to the untreated check leaf disks or segments is then calculated. Wheat leaf segments cv. Kanzler are placed on agar in multiwell plates (24-well format) and sprayed with the formulated test compound diluted in water. The leaf disks are inoculated with a spore suspension of the fungus 1 day after application. The inoculated leaf segments are incubated at 19° C. and 75% rh under a light regime of 12 h light/12 h darkness in a climate cabinet and the activity of a compound is assessed as percent disease control compared to untreated when an appropriate level of disease damage appears in untreated check leaf segments (7-9 days after application).

In data set [2] the test system is Glomerella lagenarium (Colletotrichum lagenarium). As to the kind of experiment: Glomerella lagenarium (Colletotrichum lagenarium) liquid culture / cucumber / preventative (anthracnose). It is filed as cell-based. As to conditions: Colletotrichum orbiculare, liquid culture in PDB, 24° C., 3-4 days after application, read-out: control of Glomerella lagenarium compared to untreated control (inhibition of growth, photometric). As to the method: Mycelia fragments or conidia suspensions of a fungus prepared either freshly from liquid cultures of the fungus or from cryogenic storage, are directly mixed into nutrient broth. DMSO solutions of the test compound (max. 10 mg/ml) are diluted with 0.025% Tween20 by a factor of 50 and 10 μl of this solution is pipetted into a microtiter plate (96-well format). The nutrient broth containing the fungal spores/mycelia fragments is then added to give an end concentration of the tested compound. The test plates are incubated in the dark at 24° C. and 96% relative humidity. The inhibition of fungal growth is determined photometrically after 2 to 7 days, depending on the pathosystem, and percent antifungal activity relative to the untreated check is calculated. Conidia of the fungus from cryogenic storage are directly mixed into nutrient broth (PDB potato dextrose broth). After placing a (DMSO) solution of test compound into a microtiter plate (96-well format), the nutrient broth containing the fungal spores is added. The test plates are incubated at 24° C. and the inhibition of growth is measured photometrically 3-4 days after application.

Data set [3] deals with Puccinia recondita f. sp. tritici. Briefly: Puccinia recondita f. sp. tritici / wheat / leaf disc curative (brown rust). It is filed as in vivo. Conditions: foliar, wheat leaf segments cv. Kanzler, applied 1 day after inoculation, assessed 6-8 days after application, read-out: control of Puccinia recondita f. sp. tritici compared to untreated control. The protocol: Leaf disks or leaf segments of various plant species are cut from plants grown in a greenhouse. The cut leaf disks or segments are placed in multiwell plates (24-well format) onto water agar. The leaf disks are sprayed with a test solution before (preventative) or after (curative) inoculation. Compounds to be tested are prepared as DMSO solutions (max. 10 mg/ml) which are diluted to the appropriate concentration with 0.025% Tween20 just before spraying. The inoculated leaf disks or segments are incubated under defined conditions (temperature, relative humidity, light, etc.) according to the respective test system. A single evaluation of disease level is carried out 3 to 14 days after inoculation, depending on the pathosystem. Percent disease control relative to the untreated check leaf disks or segments is then calculated. Wheat leaf segments cv. Kanzler are placed on agar in multiwell plates (24-well format). The leaf segments are inoculated with a spore suspension of the fungus. Plates are stored in darkness at 19° C. and 75% rh. The formulated test compound diluted in water is applied 1 day after inoculation. The leaf segments are incubated at 19° C. and 75% rh under a light regime of 12 h light/12 h darkness in a climate cabinet and the activity of a compound is assessed as percent disease control compared to untreated when an appropriate level of disease damage appears in untreated check leaf segments (6-8 days after application).

For data set [4], the system named is Phakopsora pachyrhizi. As to the kind of experiment: Phakopsora pachyrhizi / soybean / leaf disc preventative (Asian soybean rust). The format is in vivo. As to conditions: foliar, soybean leaf disks, inoculated one day after application, assessed 12-14 days after application, read-out: control of Phakopsora pachyrhizi compared to untreated control. As to the method: Leaf disks or leaf segments of various plant species are cut from plants grown in a greenhouse. The cut leaf disks or segments are placed in multiwell plates (24-well format) onto water agar. The leaf disks are sprayed with a test solution before (preventative) or after (curative) inoculation. Compounds to be tested are prepared as DMSO solutions (max. 10 mg/ml) which are diluted to the appropriate concentration with 0.025% Tween20 just before spraying. The inoculated leaf disks or segments are incubated under defined conditions (temperature, relative humidity, light, etc.) according to the respective test system. A single evaluation of disease level is carried out 3 to 14 days after inoculation, depending on the pathosystem. Percent disease control relative to the untreated check leaf disks or segments is then calculated. Soybean leaf disks are placed on water agar in multiwell plates (24-well format) and sprayed with the formulated test compound diluted in water. One day after application leaf discs are inoculated by spraying a spore suspension on the lower leaf surface. After an incubation period in a climate cabinet of 24-36 hours in darkness at 20° C. and 75% rh leaf disc are kept at 20° C. with 12 h light/12 h darkness and 75% rh. The activity of a compound is assessed as percent disease control compared to untreated when an appropriate level of disease damage appears in untreated check leaf disks (12-14 days after application).

Data set [5] deals with Uromyces viciae-fabae. As to the kind of experiment: Uromyces viciae-fabae / field bean / leaf disc preventative (faba-bean rust). The format is in vivo. As to conditions: foliar, 288 h, 100 ppm in the applied formulation, field bean leaf discs, inoculated two hours after application, 12 days after application, read-out: disease control compared to untreated control leaf discs. The protocol: Leaf disks or leaf segments of various plant species are cut from plants grown in a greenhouse. The cut leaf disks or segments are placed in multiwell plates (24-well format) onto water agar. The leaf disks are sprayed with a test solution before (preventative) or after (curative) inoculation. Compounds to be tested are prepared as DMSO solutions (max. 10 mg/ml) which are diluted to the appropriate concentration with 0.025% Tween20 just before spraying. The inoculated leaf disks or segments are incubated under defined conditions (temperature, relative humidity, light, etc.) according to the respective test system. A single evaluation of disease level is carried out 3 to 14 days after inoculation, depending on the pathosystem. Percent disease control relative to the untreated check leaf disks or segments is then calculated. Field bean leaf discs are placed on water agar in multiwell plates (96-well format) and 10 μl of the formulated test compound diluted in acetone and a spreader pipetted onto the leaf disc. Two hours after application leaf discs are inoculated by spraying a spore suspension on the lower leaf surface. The leaf discs are incubated in a climate cabinet at 22° C. with 18 hour day and 70% relative humidity. The activity of a compound is assessed as percent disease control compared to untreated when an appropriate level of disease damage appears in untreated check leaf disks (12 days after application).

Compound `O=C(Cc1ccc(-c2noc(C(F)(F)F)n2)cc1)NOCc1ccccc1` [Compound 2.15, N-benzyloxy-2-[4-[5-(trifluoromethyl)-1,2,4-oxadiazol-3-yl]phenyl]acetamide] gave a melting point of 135 to 138 °C. The pest or weed control at 200 ppm in data set [1] is no less than 80%. Further, the inhibition at 20 ppm in data set [2] is no less than 80%.

Regarding `CONC(=O)Cc1ccc(-c2noc(C(F)(F)F)n2)cc1F` [Compound 1.20, 2-[2-fluoro-4-[5-(trifluoromethyl)-1,2,4-oxadiazol-3-yl]phenyl]-N-methoxy-acetamide], the melting point is 150 to 152 °C. Besides, in data set [3], the pest or weed control at 200 ppm is no less than 80%. The pest or weed control at 200 ppm in data set [1] is no less than 80%. Further, in data set [2], the inhibition at 20 ppm is no less than 80%.

Compound `CCONC(=O)Cc1ccc(-c2noc(C(F)(F)F)n2)cc1F` [Compound 1.21, N-ethoxy-2-[2-fluoro-4-[5-(trifluoromethyl)-1,2,4-oxadiazol-3-yl]phenyl]acetamide] displayed a melting point of 81 to 83 °C. The pest or weed control at 200 ppm in data set [3] was no less than 80%. Further, in data set [1], the pest or weed control at 200 ppm is no less than 80%. Further, the inhibition at 20 ppm in data set [2] was no less than 80%.

Turning to `O=C(Cc1ccc(-c2noc(C(F)(F)F)n2)cc1F)NOCC(F)F` [Compound 1.23, N-(2,2-difluoroethoxy)-2-[2-fluoro-4-[5-(trifluoromethyl)-1,2,4-oxadiazol-3-yl]phenyl]acetamide], the melting point was in the range of 114 to 116 °C. Besides, in data set [3], the pest or weed control at 200 ppm was no less than 80%. Moreover, in data set [1], the pest or weed control at 200 ppm is no less than 80%. In addition, the inhibition at 20 ppm in data set [2] is no less than 80%.

Compound `O=C(Cc1ccc(-c2noc(C(F)(F)F)n2)cc1)NOCC(F)F` [Compound 2.17, N-(2,2-difluoroethoxy)-2-[4-[5-(trifluoromethyl)-1,2,4-oxadiazol-3-yl]phenyl]acetamide] gave a melting point of 140 to 146 °C. The pest or weed control at 200 ppm in data set [3] was no less than 80%. In addition, the pest or weed control at 200 ppm in data set [1] is no less than 80%. Further, the inhibition at 20 ppm in data set [2] is no less than 80%. Also, in data set [4], the pest or weed control at 200 ppm is no less than 80%.

For `O=C(NOCC(F)F)c1ccc(-c2noc(C(F)(F)F)n2)cc1` [Compound 2.18, N-(2,2-difluoroethoxy)-4-[5-(trifluoromethyl)-1,2,4-oxadiazol-3-yl]benzamide], the melting point is 134 to 137 °C. For the same compound, the pest or weed control at 200 ppm in data set [3] is no less than 80%. For the same compound, the pest or weed control at 200 ppm in data set [1] is no less than 80%. The inhibition at 20 ppm in data set [2] was no less than 80%.

Compound `CCONC(=O)c1ccc(-c2noc(C(F)(F)F)n2)c(F)c1` [Compound 1.13, N-ethoxy-3-fluoro-4-[5-(trifluoromethyl)-1,2,4-oxadiazol-3-yl]benzamide] yielded a melting point of 139 to 144 °C. In data set [1], the pest or weed control at 200 ppm is no less than 80%. Besides, the inhibition at 20 ppm in data set [2] is no less than 80%.

`O=C(NOCc1ccccc1)c1ccc(-c2noc(C(F)(F)F)n2)c(F)c1` [Compound 1.16, N-benzyloxy-3-fluoro-4-[5-(trifluoromethyl)-1,2,4-oxadiazol-3-yl]benzamide] showed a melting point of 178 to 181 °C. The pest or weed control at 200 ppm in data set [3] was no less than 80%. Further, in data set [1], the pest or weed control at 200 ppm is no less than 80%. Further, the inhibition at 20 ppm in data set [2] was no less than 80%. Besides, in data set [4], the pest or weed control at 200 ppm is no less than 80%.

`C=CCONC(=O)Cc1ccc(-c2noc(C(F)(F)F)n2)cc1` [Compound 2.14, N-allyloxy-2-[4-[5-(trifluoromethyl)-1,2,4-oxadiazol-3-yl]phenyl]acetamide] showed a melting point of 153 to 158 °C. For the same compound, the pest or weed control at 200 ppm in data set [1] was no less than 80%. Besides, in data set [2], the inhibition at 20 ppm is no less than 80%.

With `O=C(NOCC(F)F)c1ccc(-c2noc(C(F)(F)F)n2)c(F)c1` [Compound 1.14, N-(2,2-difluoroethoxy)-3-fluoro-4-[5-(trifluoromethyl)-1,2,4-oxadiazol-3-yl]benzamide], the melting point lay in the range of 138 to 140 °C. Moreover, the pest or weed control at 200 ppm in data set [3] was no less than 80%. For the same compound, in data set [1], the pest or weed control at 200 ppm was no less than 80%. The inhibition at 20 ppm in data set [2] was no less than 80%.

The compound `CCONC(=O)Cc1ccc(-c2noc(C(F)(F)F)n2)cc1` [Compound 2.16, N-ethoxy-2-[4-[5-(trifluoromethyl)-1,2,4-oxadiazol-3-yl]phenyl]acetamide] had a melting point of 171 to 183 °C. The pest or weed control at 200 ppm in data set [3] is no less than 80%. Further, the pest or weed control at 200 ppm in data set [1] was no less than 80%. Further, in data set [2], the inhibition at 20 ppm is no less than 80%. In data set [4], the pest or weed control at 200 ppm was no less than 80%.

`CON(Cc1ccccc1)C(=O)c1ccc(-c2noc(C(F)(F)F)n2)cc1F` [Compound 1.6, N-benzyl-2-fluoro-N-methoxy-4-[5-(trifluoromethyl)-1,2,4-oxadiazol-3-yl]benzamide]: the pest or weed control at 200 ppm in data set [3], in data set [1] and in data set [4] was no less than 80% each time. The pest or weed control at 100 ppm in data set [5] was no less than 80%. The inhibition at 20 ppm in data set [2] is no less than 80%.

`C=CCONC(=O)c1ccc(-c2noc(C(F)(F)F)n2)c(F)c1` [Compound 1.15, N-allyloxy-3-fluoro-4-[5-(trifluoromethyl)-1,2,4-oxadiazol-3-yl]benzamide] gave a melting point of 132 to 136 °C. Also, the pest or weed control at 200 ppm in data set [3] is no less than 80%. Further, in data set [1], the pest or weed control at 200 ppm was no less than 80%. In data set [2], the inhibition at 20 ppm was no less than 80%.

A word on the melting point: it is the temperature, or range, at which the solid turns liquid. The term inhibition denotes the relative decrease from the control value, in per cent.
